Patent publication US20020022052A1, “Transdermal delivery system” (priority 2000, published 2002)

Tests used:
[1] = bovine
Protocol: All final tests were carried out with HPLC analysis.

[2] = Skin tolerability trials of ascorbic acid admixtures; conditions: water free carriers, ascorbic acid levels as high as 35%
Text: In addition, acidity is a function of the ionic dissociation of a material in solution. In most circumstances water is the primary dissociation medium and so solutions free of water generally have lower acidity. […] While it is impossible to totally exclude water, as there are minute traces in the ingredients utilized as carriers, acidity is kept to a minimum in what are essentially water free admixtures.

[3] = ascorbic acid content above 14% by weight, water based; cited from earlier work
[4] = Maximum achieved massage induced skin load (400 g vibrator, 10 minutes); conditions: particle size 1 micron ± 0.25 um
Text: To counter this problem, Franz Diffusion Cells using the widely accepted Perfused Bovine Udder Skin model were fitted with vibrators which held a soft plastic head against the test skin in a massaging action. The vibrator was allowed to move randomly over the test sample using its own mass to provide the pressure. The total weight of a vibrator and head was 180 grams and the massage heads were 1.2 cm in diameter. The vibrators provided a massage pressure well below that which would be applied by a person finger massaging cream into the skin.
Testing was done by preparing sample creams as discussed below. Each sample was weighed and spread on the test skin. At this point the sample was subject to five minutes of the massage action described and then the remaining cream was removed and skin surface wiped dry. The weight of the absorbed amount was determined by weighing the removed material. The cell was not capped, the skin being left exposed to the air.
Tests were carried out to determine the maximum of both admixture and dry powder that could be induced into the stratum corneum. The vibrator weight was increased to 400 grams and vibration time to 10 minutes. Zinc gluconate (being of particular interest) was used as the active for these tests.

Compound	particle size at which absorption began to be demonstrated [1]	subjective discomfort compared with 12% water based admixture [2]	tolerability [2]	skin reactions [3]	Maximum loading ([4]; carrier Eutanol G)	Maximum loading ([4]; carrier Nil (dry powder))
O=C1O[C@H]([C@@H](O)CO)C(O)=C1O [ascorbic acid]	below 7 microns	less discomfort	well tolerated	burning, stinging and other skin reactions		
zinc gluconate					1.2 micrograms/cm^2	0.6 micrograms/cm^2
